A short description of data set [1]: In vivo pharmacokinetics of rat, single intravenous injection or oral administration by gavage. The settings on record: male, Sprague-Dawley, plasma; for Vd: read-out: VZ; for bioavailability: intragastric (gavage) 10 mg/kg vs intravenous 1 mg/kg. Also noted: species or system Male Sprague Dawley rats. The procedure: In this experimental embodiment, the in vivo pharmacokinetics of rat was evaluated by a single intravenous injection or oral administration by gavage.
Experimental methods and conditions: Male Sprague Dawley rats, all animals were fasted overnight, and the test compound was given 1 mg/Kg (intravenous injection, solvent […]) and 10 mg/Kg (administrated by gavage) respectively, 5, 15, 30 min, 1, 2, 4, 6, 8 and 24 hr after administration, blood was collected through the submandibular vein, about 0.20 mL of each sample was collected, heparin sodium was used for anticoagulation, the samples were placed on ice after the collection, then centrifuged within 1 hour to separate the plasma for testing. The blood drug concentration in plasma was detected by liquid-phase tandem mass spectrometry (LC/MS/MS), and the pharmacokinetic parameters were calculated by the measured concentration.

Another data set addresses T1, NaV1.8 (Homo sapiens, UniProt Q9Y5Y9).
T1 construct: expressed in transfected cells
Put plainly: Whole-cell patch clamp blocking activity against NaV1.8 channel current. The settings on record: for IC50: CHO cell line stably expressing Nav1.8 (SCN10A: NM_006514), patch clamp; for Blocking rate (%) @100 nM: against NaV1.8 at 100 nM, CHO cell line stably expressing Nav1.8, patch clamp. The format is cell-based. The procedure:
1. Test method: patch clamp technique was used to detect the influence of compounds on voltage-gated sodium channel (NaV) 1.1-1.8 subtype current
1) The specific information of the CHO cell line stably expressing the Nav1.8 channel was as follows: SCN10A: NM_006514
2) Cells were cultured in HAM'S/F-12 medium containing 10% fetal bovine serum and 10 μg/mL Blasticidin, 200 μg/mL Hygromycin B and 100 μg/mL Zeocin, culture temperature was 37° C. and the concentration of CO2 was 5%.
5) Patch clamp detection, before the experiment, the cells were separated with 0.25%—trypsin EDTA, inoculated into a 24 well plate with a density of 8*10^3 cells per well (final volume: 500 μL), tetracycline was added thereto, and experimental test was performed on the next day.
1) Extracellular fluid: 140 mM NaCl, 3.5 mM KCl, 2 mM CaCl2, 10 mM HEPES, 1.25 mM NaH2PO4, 1 mM MgCl2, 10 mM Glucose, pH=7.4 (NaOH).
2) Intracellular fluid: 50 mM CsCl, 10 mM NaCl, 10 mM HEPES, 20 mM EGTA, 60 mM CsF, pH=7.2 (CsOH).
The voltage stimulation scheme of whole-cell patch clamp recording of Nav channel current was as follows: first the membrane potential of the cell was clamped at −130 mV, and then the voltage was stepped to −40 mV or −20 mV at 10 mv step intervals for 8 s. The clamping voltage was maintained at −120 mV, and data was collected repeatedly every 20 seconds. The peak amplitude of its inward current was measured to determine its half-inactivation voltage.
The cell clamping potential was set at −120 mV. The resting and half-inactivation inhibition of sodium current was measured using double pulse mode. The double pulse mode was completed by two 0 mV depolarization test pulses (TP1 and TP2) lasting 50 ms. The conditional voltage between the two depolarization pulses was set near the half-inactivation voltage (lasting 8 s). […] The data acquisition was repeated at an interval of 20 s and the current peak was measured at the two test pulses.
When the current of the Nav channel recorded by the whole cell was stable, the drug was administered, after each drug concentration was applied for 5 minutes (or the current was stable), the next concentration would be tested, and multiple concentrations would be tested for each test compound. The cover glass covered with cells was placed in the recording bath of an inverted microscope, the test compound and the external liquid without compound flowed through the recording chambers in turns from low concentration to high concentration by gravity perfusion, so as to act on the cells, in the recording, the liquid exchange was carried out by vacuum pump. The current detected in each cell in the compound-free external fluid served as its own control group. Multiple cells were detected independently and repeatedly. All electrophysiological experiments were performed at room temperature.
First, the current after the action of each drug concentration and the blank control current were normalized, and then the blocking rate corresponding to each drug concentration was calculated. The mean and standard error were calculated for each concentration, and all the above values were calculated by Microsoft Excel 2013. In addition, the half-inhibitory concentration of each compound was calculated by IGOR software with the following equation: retardation rate=1/[1+(IC50/c)^h].
The dose-dependent effect was nonlinearly fitted with the above equation, wherein, c refers to the drug concentration, IC50 was the half inhibitory concentration, and h refers to the Hill coefficient. The curve fitting and the calculation of IC50 were completed by IGOR software (software version: 6.0.1.0).
A general note: In patch-clamp work, channel activity is measured electrically.

Setting [2] is: intravenous administration 1 mg/kg.
The mark [3] stands for this setting: po, intragastric (gavage) 10 mg/kg.

T1 sequence (Q9Y5Y9 whole entry): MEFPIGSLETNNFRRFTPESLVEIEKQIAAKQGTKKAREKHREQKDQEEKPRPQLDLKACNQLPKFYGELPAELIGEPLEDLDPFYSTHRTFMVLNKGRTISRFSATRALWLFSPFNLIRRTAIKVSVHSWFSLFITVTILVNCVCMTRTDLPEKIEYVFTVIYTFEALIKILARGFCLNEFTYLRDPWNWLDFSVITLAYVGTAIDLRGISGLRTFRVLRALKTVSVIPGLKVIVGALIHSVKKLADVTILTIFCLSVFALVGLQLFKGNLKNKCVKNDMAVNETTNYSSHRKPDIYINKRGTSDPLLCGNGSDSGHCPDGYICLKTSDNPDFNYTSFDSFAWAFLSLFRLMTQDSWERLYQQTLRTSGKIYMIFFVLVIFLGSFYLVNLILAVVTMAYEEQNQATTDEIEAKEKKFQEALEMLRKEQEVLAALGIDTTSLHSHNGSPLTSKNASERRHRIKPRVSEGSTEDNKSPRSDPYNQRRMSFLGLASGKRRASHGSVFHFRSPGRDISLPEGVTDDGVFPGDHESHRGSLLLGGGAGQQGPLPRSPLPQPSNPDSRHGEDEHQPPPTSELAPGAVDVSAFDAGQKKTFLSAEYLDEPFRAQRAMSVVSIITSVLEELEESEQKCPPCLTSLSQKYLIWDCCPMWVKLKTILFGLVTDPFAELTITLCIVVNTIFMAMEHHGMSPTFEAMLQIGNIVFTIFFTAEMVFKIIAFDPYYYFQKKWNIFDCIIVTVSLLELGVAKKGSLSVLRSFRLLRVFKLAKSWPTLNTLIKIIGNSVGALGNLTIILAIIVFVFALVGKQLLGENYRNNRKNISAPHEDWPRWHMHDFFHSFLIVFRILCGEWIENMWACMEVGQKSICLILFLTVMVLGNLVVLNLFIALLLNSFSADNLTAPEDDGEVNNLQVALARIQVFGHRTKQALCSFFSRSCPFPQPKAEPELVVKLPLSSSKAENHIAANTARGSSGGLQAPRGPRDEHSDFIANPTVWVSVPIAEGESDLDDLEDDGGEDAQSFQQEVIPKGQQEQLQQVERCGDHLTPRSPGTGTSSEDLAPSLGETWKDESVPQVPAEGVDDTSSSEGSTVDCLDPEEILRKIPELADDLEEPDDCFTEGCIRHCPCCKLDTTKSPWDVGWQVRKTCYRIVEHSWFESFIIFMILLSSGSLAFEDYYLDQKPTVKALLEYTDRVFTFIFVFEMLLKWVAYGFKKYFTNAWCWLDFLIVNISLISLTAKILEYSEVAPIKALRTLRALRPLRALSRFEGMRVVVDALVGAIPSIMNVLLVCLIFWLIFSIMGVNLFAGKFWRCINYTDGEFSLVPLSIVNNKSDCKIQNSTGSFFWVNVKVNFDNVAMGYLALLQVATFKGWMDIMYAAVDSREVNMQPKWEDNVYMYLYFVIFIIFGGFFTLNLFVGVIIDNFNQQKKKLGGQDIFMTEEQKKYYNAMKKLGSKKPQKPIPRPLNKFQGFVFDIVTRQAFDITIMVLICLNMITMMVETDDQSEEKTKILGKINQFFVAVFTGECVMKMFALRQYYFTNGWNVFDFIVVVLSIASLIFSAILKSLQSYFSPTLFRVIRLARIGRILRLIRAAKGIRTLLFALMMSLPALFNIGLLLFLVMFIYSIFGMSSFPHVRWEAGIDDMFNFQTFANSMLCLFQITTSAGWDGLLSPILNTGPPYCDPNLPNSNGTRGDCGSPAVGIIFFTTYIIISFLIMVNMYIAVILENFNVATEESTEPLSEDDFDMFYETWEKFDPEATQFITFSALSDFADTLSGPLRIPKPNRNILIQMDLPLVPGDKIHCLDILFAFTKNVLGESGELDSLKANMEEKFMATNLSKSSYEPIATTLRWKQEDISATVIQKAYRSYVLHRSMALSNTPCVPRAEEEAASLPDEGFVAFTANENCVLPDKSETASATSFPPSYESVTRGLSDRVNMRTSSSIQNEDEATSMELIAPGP

The term AUC(0-inf) denotes total exposure, with the tail of the curve extrapolated. Read a high AUC(0-inf) as high exposure. The term half-life denotes how long it takes for the measured level to halve. Read a high half-life as slow loss. The Cmax is the highest concentration seen after dosing. One may read the bioavailability as the share of a dose that reaches the circulation, judged against a reference dose that is usually intravenous. Usually IC50 stands for the point on the concentration scale where inhibition reaches its midpoint. The low end stands for greater potency, the high end for weaker potency. In the case of `O=C(Nc1ccc[n+]([O-])c1)c1c(Oc2ccc(OC(F)(F)F)cc2)cc(C(F)(F)F)c(Cl)c1F` [Embodiment A68], in data set [1] (setting [2]), the AUC(0-inf) is 33.3 µg·h/mL, the clearance is 0.5 mL/min/kg, the half-life is 5.24 h and the Vd is 0.228 L/kg. In data set [1] (setting [3]), this compound had an AUC(0-inf) of 139 µg·h/mL, a Cmax of 9700 ng/mL and a half-life of 5.72 h. This compound also registered a bioavailability in data set [1] (po) of 41.8%. At NaV1.8, the midpoint of inhibition, the IC50, lay at 0.27 nM and the “Blocking rate (%) @100 nM” value is reported as 99.15%.

`O=C(Nc1cc[n+]([O-])nc1)c1c(Oc2ccc(OC(F)(F)F)c(F)c2)ccc(C(F)(F)F)c1F` [Embodiment A56]: in data set [1] (setting [2]), the AUC(0-inf) worked out at 9.6 µg·h/mL, the clearance was 1.74 mL/min/kg, the half-life is 13.1 h and the Vd was 1.97 L/kg. In data set [1] (setting [3]), this compound gave an AUC(0-inf) of 117 µg·h/mL, a Cmax of 3000 ng/mL and a half-life of 27.9 h. The compound also gave a bioavailability in data set [1] (po) of 68.2%. The compound also registered a half-inhibitory concentration (IC50) against NaV1.8 of 3.7 nM.

For `O=C(Nc1ccc[n+]([O-])c1)c1cc(Cl)c(C(F)(F)F)cc1Oc1ccc(OC(F)(F)F)cc1` [Embodiment A69], in data set [1] (setting [2]), the total exposure AUC(0-inf) was 56.7 µg·h/mL, the clearance stood at 0.3 mL/min/kg, the half-life was 12.3 h and the Vd turned out to be 0.312 L/kg. In data set [1] (setting [3]), the AUC(0-inf) amounted to 399 µg·h/mL, the Cmax worked out at 17100 ng/mL and the half-life was 12.2 h. This compound also registered a bioavailability in data set [1] (po) of 70.4%. It took 2 nM to reach half-maximal inhibition on NaV1.8 (IC50).

In the case of `O=C(Nc1ccc[n+]([O-])c1)c1cc(Cl)c(Cl)cc1Oc1ccc(OC(F)(F)F)cc1` [Embodiment A11], in data set [1] (setting [2]), the AUC(0-inf) amounted to 1.46 µg·h/mL, the clearance came to 11.4 mL/min/kg, the half-life is 0.7 h and the Vd came to 0.699 L/kg. Further, in data set [1] (setting [3]), the area under the curve AUC(0-inf) came to 10.6 µg·h/mL, the Cmax stood at 1330 ng/mL and the half-life is 2.51 h. In addition, the bioavailability in data set [1] (po) is 72.6%. In addition, 6.2 nM corresponded to half-maximal inhibition on NaV1.8 (IC50).

On to `Cc1cc(F)ccc1Oc1cc(C(F)(F)F)c(Cl)cc1C(=O)Nc1ccc[n+]([O-])c1` [Embodiment A103], for which, in data set [1] (setting [2]), the AUC(0-inf) is 2.76 µg·h/mL, the clearance amounted to 6.15 mL/min/kg, the half-life was 2.28 h and the Vd was found to be 1.19 L/kg. In data set [1] (setting [3]), the AUC(0-inf) amounted to 14 µg·h/mL, the Cmax was 1710 ng/mL and the half-life was 2.47 h. This compound also displayed a bioavailability in data set [1] (po) of 50.7%. The “Blocking rate (%) @100 nM” value at NaV1.8 is reported as 92.47%.

`O=C(Nc1ccn[n+]([O-])c1)c1c(Oc2ccc(OC(F)(F)F)cc2)ccc(C(F)(F)F)c1Cl` [Embodiment A28] returned an IC50 on NaV1.8 of 2.9 nM. This lies in the single-digit nanomolar range.

On to `O=C(Nc1ccc[n+]([O-])c1)c1c(Oc2ccc(OC(F)(F)F)cc2)ccc(CC2CC2)c1F` [Embodiment A98], for which, at NaV1.8, the “Blocking rate (%) @100 nM” value turned out to be 95.70%.

As for `O=C(Nc1cc[n+]([O-])nc1)c1c(Oc2ccc(OC(F)F)cc2)ccc(C(F)(F)F)c1F` [Embodiment A72], on NaV1.8, the “Blocking rate (%) @100 nM” value was found to be 85.63%.

On to `Cc1cc(F)ccc1Oc1cc(C(F)(F)F)c(Cl)c(F)c1C(=O)Nc1ccc[n+]([O-])c1` [Embodiment A104], for which the “Blocking rate (%) @100 nM” value on NaV1.8 amounted to 97.93%.

Regarding `O=C(Nc1cc[n+]([O-])nc1)c1c(Oc2ccc(OC(F)(F)F)cc2)ccc(C(F)(F)F)c1Cl` [Embodiment A27], half-maximal inhibition against NaV1.8 (IC50) was put at 0.64 nM. In other words, the sub-nanomolar range.

In the case of `O=C(Nc1ccc[n+]([O-])c1)c1c(Oc2ccc(OC(F)(F)F)cc2)ccc(C(F)(F)C(F)(F)F)c1F` [Embodiment A18], the “Blocking rate (%) @100 nM” value at NaV1.8 is listed as 96.02%.

Regarding `O=C(Nc1cc[n+]([O-])nc1)c1ccc(C(F)(F)F)cc1Oc1ccc(OC(F)(F)F)c(F)c1` [Embodiment A26], the “Blocking rate (%) @100 nM” value at NaV1.8 was found to be 79.32%.

As to `O=C(Nc1ccn[n+]([O-])c1)c1c(Oc2ccc(OC(F)(F)F)cc2)ccc(I)c1F` [Embodiment A24], the “Blocking rate (%) @100 nM” value at NaV1.8 was determined as 91.28%.

Consider `Cc1cc(Oc2ccc(OC(F)(F)F)cc2)c(C(=O)Nc2ccc[n+]([O-])c2)cc1Cl` [Embodiment A92], for which, at NaV1.8, the “Blocking rate (%) @100 nM” value came out at 85.44%.

Turning to `O=C(Nc1cc[n+]([O-])nc1)c1c(Oc2ccc(OC(F)(F)F)cc2)cnc(C(F)(F)F)c1F` [Embodiment A61], 10.2 nM corresponded to half-maximal inhibition against NaV1.8 (IC50).

`O=C(Nc1ccc[n+]([O-])c1)c1c(Oc2ccc(OC(F)(F)F)cc2)cc(Cl)c(Cl)c1F` [Embodiment A22] showed an IC50 at NaV1.8 of 0.32 nM.

As to `O=C(Nc1ccc[n+]([O-])c1)c1c(Oc2ccc(OC(F)(F)F)c(F)c2)cc(C(F)(F)F)c(Cl)c1F` [Embodiment A84], in data set [1] (setting [2]), the AUC(0-inf) is 18.8 µg·h/mL, the clearance amounted to 0.91 mL/min/kg, the half-life is 4.53 h and the Vd is 0.355 L/kg. In data set [1] (setting [3]), this compound gave an AUC(0-inf) of 67.2 µg·h/mL, a peak concentration (Cmax) of 4920 ng/mL and a half-life of 5.75 h. The same compound showed a bioavailability in data set [1] (po) of 35.7%. Moreover, the “Blocking rate (%) @100 nM” value at NaV1.8 worked out at 99.14%.

In the case of `O=C(Nc1ccc[n+]([O-])c1)c1c(Oc2ccc(OC(F)F)cc2)ccc(C(F)(F)F)c1F` [Embodiment A16], at NaV1.8, the “Blocking rate (%) @100 nM” value is given as 85.08%.

For `O=C(Nc1ccc[n+](O)c1)c1c(F)cc(OC(F)(F)F)cc1Oc1ccc(OC(F)(F)F)cc1` [Embodiment A20], the “Blocking rate (%) @100 nM” value at NaV1.8 is on record as 87.14%.

With `O=C(Nc1ccc[n+]([O-])c1)c1cc(Cl)c(Br)cc1Oc1ccc(OC(F)(F)F)cc1` [Embodiment A96], at NaV1.8, the “Blocking rate (%) @100 nM” value was 88.78%.

Regarding `O=C(Nc1cc[n+](O)nc1)c1c(Oc2ccc(OC(F)(F)F)cc2)ccc(C(F)(F)F)c1F` [Embodiment A46], in data set [1] (setting [2]), the AUC(0-inf) is 15.6 µg·h/mL, the clearance worked out at 1.08 mL/min/kg, the half-life is 20.1 h and the Vd came out at 1.85 L/kg. Further, in data set [1] (setting [3]), the total exposure AUC(0-inf) came to 2930 µg·h/mL, the Cmax came to 2060 ng/mL and the half-life is 915 h. Further, the bioavailability in data set [1] (po) turned out to be 46.8%. Besides, half-maximal inhibition against NaV1.8 (IC50) required 3.1 nM.

`O=C(Nc1cc[n+]([O-])nc1)c1cc(Cl)c(Cl)cc1Oc1ccc(OC(F)(F)F)cc1` [Embodiment A35] displayed an IC50 against NaV1.8 of 3 nM.

On NaV1.8, `Cc1cc(OC(F)(F)F)ccc1Oc1ccc(C(F)(F)F)c(F)c1C(=O)Nc1ccc[n+](O)c1` [Embodiment A51] came in with an IC50 of 2.7 nM.

On NaV1.8, `O=C(Nc1ccn[n+]([O-])c1)c1cc(Cl)c(Cl)cc1Oc1ccc(OC(F)(F)F)c(F)c1` [Embodiment A38] yielded an IC50 of 7.3 nM.

For the compound `O=C(Nc1ccc[n+](O)c1)c1c(Oc2ccc(OC(F)(F)F)c(F)c2)cc(Cl)c(Cl)c1F` [Embodiment A21], the “Blocking rate (%) @100 nM” value on NaV1.8 is on record as 98.02%.

For the compound `O=C(Nc1cc[n+]([O-])nc1)c1c(Oc2ccc(OC(F)(F)F)c(F)c2)cnc(C(F)(F)F)c1F` [Embodiment A83], the “Blocking rate (%) @100 nM” value on NaV1.8 was 84.98%.
